Blank lines part the entries; values can stand above or below the molecule they belong to.
Key:
[1] = molecular target: T1, Cystic fibrosis transmembrane conductance regulator (Homo sapiens, UniProt P13569, F508DEL); assay: Potentiation of CFTR F508del mutant (unknown origin) expressed in NIH3T3 cells; assay type: cell-based
[2] = molecular target: T1, Cystic fibrosis transmembrane conductance regulator; assay: Corrector activity at […] CFTR F508del mutant (unknown origin) expressed in BHK cells assessed as increase in chloride secretion […]; assay type: cell-based
[3] = molecular target: T2, Cystic fibrosis transmembrane conductance regulator (Homo sapiens, UniProt P13569, N1303K); assay: Potentiation of CFTR N1303K mutant (unknown origin) expressed in FRT cells assessed as increase in CFTR mutant activity; assay type: cell-based
[4] = molecular target: T1, Cystic fibrosis transmembrane conductance regulator; assay: Activation of CFTR F508del mutant (unknown origin)
[5] = molecular target: T1, Cystic fibrosis transmembrane conductance regulator; assay: Potentiation of CFTR F508del mutant (unknown origin) in FRT cells assessed as rescue of CFTR mutant incubated for 24 hrs in presence of VX-770; assay type: cell-based
[6] = molecular target: Cystic fibrosis transmembrane conductance regulator (Homo sapiens, UniProt P13569, G551D); assay: Potentiation of CFTR G551D mutant (unknown origin) expressed in FRT cells; assay type: cell-based
[7] = molecular target: T2, Cystic fibrosis transmembrane conductance regulator; assay: Potentiation of CFTR N1303K mutant (unknown origin) transfected in […] FRT cells in presence of forskolin/VX-770; assay type: cell-based
[8] = molecular target: Cystic fibrosis transmembrane conductance regulator (Homo sapiens, UniProt P13569, W1282X); assay: Potentiation of CFTR W1282X mutant (unknown origin) transfected in […] FRT cells in presence of forskolin/VX-770; assay type: cell-based
[9] = tested on: Cystic fibrosis transmembrane conductance regulator (Homo sapiens), P13569 [G551D]; assay: Potentiation of CFTR G551D mutant (unknown origin) expressed in FRT cells assessed as increase in chloride current in presence of VX-770 relative to control; assay type: cell-based; settings: filed as activator
Sequence of Cystic fibrosis transmembrane conductance regulator (Homo sapiens), P13569 [G551D] (P13569 whole entry G551D): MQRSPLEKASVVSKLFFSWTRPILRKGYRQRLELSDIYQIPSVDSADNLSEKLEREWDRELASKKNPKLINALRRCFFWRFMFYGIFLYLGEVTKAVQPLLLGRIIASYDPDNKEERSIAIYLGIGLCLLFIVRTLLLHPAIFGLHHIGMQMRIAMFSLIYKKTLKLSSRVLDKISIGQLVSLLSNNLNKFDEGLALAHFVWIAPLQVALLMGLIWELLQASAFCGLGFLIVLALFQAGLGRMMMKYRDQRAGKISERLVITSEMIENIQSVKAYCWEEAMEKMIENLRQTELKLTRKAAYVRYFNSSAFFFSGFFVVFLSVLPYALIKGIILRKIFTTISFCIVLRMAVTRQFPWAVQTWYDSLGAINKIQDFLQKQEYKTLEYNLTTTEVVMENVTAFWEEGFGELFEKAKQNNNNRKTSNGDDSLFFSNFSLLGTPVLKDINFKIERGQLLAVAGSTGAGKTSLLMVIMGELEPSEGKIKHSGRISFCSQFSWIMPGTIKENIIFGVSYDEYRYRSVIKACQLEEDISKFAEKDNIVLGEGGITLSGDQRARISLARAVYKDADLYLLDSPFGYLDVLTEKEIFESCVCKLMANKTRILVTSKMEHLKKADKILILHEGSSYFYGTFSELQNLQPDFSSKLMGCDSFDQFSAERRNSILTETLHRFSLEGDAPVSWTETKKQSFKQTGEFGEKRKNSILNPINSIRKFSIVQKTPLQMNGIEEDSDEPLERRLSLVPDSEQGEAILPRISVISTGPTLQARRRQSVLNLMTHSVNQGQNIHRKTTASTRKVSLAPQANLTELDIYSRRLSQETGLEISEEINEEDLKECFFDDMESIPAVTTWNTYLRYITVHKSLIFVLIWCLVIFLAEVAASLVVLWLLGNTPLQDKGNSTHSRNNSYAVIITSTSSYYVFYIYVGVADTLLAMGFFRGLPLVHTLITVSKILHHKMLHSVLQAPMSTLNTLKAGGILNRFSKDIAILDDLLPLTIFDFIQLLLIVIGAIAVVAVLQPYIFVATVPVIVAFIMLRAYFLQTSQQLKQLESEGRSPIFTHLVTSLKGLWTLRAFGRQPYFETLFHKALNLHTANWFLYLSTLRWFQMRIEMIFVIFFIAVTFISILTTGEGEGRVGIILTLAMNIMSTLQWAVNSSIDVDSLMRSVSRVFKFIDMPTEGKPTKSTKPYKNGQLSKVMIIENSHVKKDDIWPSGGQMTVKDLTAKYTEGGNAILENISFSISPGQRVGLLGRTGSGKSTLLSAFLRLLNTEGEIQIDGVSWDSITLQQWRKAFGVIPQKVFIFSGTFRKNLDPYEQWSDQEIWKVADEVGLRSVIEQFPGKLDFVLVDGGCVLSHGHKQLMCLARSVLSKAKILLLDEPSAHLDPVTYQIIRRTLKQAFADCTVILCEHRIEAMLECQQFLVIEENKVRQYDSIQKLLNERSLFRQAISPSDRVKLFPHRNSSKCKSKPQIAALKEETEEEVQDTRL

T1 sequence (P13569 as listed by the source): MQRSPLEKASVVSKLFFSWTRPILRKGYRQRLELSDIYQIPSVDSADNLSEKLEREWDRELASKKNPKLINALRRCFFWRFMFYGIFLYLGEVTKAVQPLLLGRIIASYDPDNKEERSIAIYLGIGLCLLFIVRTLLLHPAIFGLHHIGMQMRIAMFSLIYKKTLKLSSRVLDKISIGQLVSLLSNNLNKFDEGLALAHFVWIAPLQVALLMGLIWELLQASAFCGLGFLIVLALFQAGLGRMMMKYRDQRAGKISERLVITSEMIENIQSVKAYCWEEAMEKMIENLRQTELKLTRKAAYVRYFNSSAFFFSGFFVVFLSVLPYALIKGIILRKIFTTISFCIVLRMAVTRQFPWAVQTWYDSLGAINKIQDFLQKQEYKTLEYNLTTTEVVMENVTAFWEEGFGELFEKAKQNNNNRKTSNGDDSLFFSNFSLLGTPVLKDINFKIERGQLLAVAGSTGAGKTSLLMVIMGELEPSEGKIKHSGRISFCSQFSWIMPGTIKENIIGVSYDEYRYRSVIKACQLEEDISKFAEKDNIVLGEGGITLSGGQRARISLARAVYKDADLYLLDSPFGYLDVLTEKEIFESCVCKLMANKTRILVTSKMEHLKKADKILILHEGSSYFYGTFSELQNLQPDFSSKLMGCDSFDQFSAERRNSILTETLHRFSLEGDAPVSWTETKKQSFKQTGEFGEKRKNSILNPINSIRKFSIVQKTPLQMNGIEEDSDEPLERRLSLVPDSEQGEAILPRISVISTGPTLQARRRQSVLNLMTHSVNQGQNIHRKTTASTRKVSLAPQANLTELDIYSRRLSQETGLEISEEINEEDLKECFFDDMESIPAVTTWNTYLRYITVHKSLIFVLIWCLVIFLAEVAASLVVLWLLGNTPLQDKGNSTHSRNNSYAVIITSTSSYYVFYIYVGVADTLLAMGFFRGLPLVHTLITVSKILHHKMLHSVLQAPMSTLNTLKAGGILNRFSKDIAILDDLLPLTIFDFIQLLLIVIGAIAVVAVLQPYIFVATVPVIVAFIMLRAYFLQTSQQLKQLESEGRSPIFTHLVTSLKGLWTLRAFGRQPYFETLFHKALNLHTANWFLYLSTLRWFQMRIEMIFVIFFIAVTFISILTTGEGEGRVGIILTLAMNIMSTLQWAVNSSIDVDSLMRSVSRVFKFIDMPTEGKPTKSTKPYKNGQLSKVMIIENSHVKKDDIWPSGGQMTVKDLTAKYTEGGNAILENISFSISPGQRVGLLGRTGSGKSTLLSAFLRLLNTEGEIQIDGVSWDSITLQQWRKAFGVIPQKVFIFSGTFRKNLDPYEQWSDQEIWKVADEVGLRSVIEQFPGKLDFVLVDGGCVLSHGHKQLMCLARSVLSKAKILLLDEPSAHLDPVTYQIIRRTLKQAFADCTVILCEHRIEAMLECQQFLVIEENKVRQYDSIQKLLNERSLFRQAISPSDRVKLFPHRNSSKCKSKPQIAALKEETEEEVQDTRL
T2 sequence (P13569 whole entry N1303K): as the sequence (P13569 whole entry G551D) above, with D551G, N1303K counted along it
Sequence of Cystic fibrosis transmembrane conductance regulator (Homo sapiens, UniProt P13569, G551D) (P13569 whole entry G551D): as the sequence (P13569 whole entry G551D) above

EC50 [1]: 3300 nM
SMILES: COc1ccc(S(=O)(=O)N2CCN(C(C)c3nc(OC4CCCCC4)c4ccccc4n3)CC2)cc1 (stereo unspecified)

EC50 [1]: 7000 nM
EC50 [2]: 81 nM
SMILES: O=C(Nc1ncc(Cc2ccccc2Cl)s1)C(c1ccccc1)c1ccccc1

SMILES: O=c1cc(-c2ccc(O)cc2)oc2cc(O)cc(O)c12 [APIGENIN]
EC50 [3]: 10800 nM

EC50 [4]: 3000 nM
SMILES: OC(C1=NC(c2ccc(Br)cc2)NN1)c1ccccc1Br (stereo unspecified)

EC50 [4]: 2700 nM
SMILES: OC(C1=NC(c2ccc(Br)cc2)NN1)c1ccc(Br)cc1 (stereo unspecified)

EC50 [1]: 1100 nM
SMILES: CC(C)(CO)c1cc2cc(NC(=O)C3(c4ccc5c(c4)OC(F)(F)O5)CC3)c(F)cc2n1C[C@@H](O)CO [TEZACAFTOR]

EC50 [5]: 400 nM
SMILES: Cc1ncccc1CNC(=O)c1ccc2c(c1)CC[C@@H]1C[C@@](O)(CCC(F)(F)F)CC[C@@]21Cc1ccccc1

EC50 [6]: 100 nM
SMILES: O=C(Nc1ccc2cc[nH]c2c1)c1c[nH]c2ccccc2c1=O

EC50 [4]: 1000 nM
SMILES: O=P(O)(CCP(=O)(O)c1ccccc1)c1ccccc1

EC50 [4]: 930 nM
SMILES: Cc1ccc(S(=O)(=O)Nc2nc3ccccc3nc2C2CCOCC2)cc1

EC50 [4]: 1900 nM
SMILES: OCc1cccc(N2C=CN(c3ccccc3)N2)c1

EC50 [7]: 1900 nM
EC50 [8]: 1000 nM
Activity [9]: 65%
SMILES: CCCCN1CC(S(=O)(=O)Nc2ccc(CC)cc2)c2cccnc21 (stereo unspecified)

EC50 [4]: 4200 nM
SMILES: OC(C1=CNNN1c1ccc(Br)cc1)c1ccccc1Br (stereo unspecified)

Source: ChEMBL document CHEMBL5523680, “Small molecule modulators of cystic fibrosis transmembrane conductance regulator (CFTR): Structure, classification, and mechanisms” (Eur J Med Chem, 2024)
